Experimental data taken from ChEMBL document CHEMBL1126077 (J Med Chem, 1992).

Legend:
[1] = target: T1, Cholesterol side-chain cleavage enzyme, mitochondrial (Bos taurus, UniProt P00189); test: Inhibition of bovine adrenal desmolase
T1 sequence (P00189 whole entry): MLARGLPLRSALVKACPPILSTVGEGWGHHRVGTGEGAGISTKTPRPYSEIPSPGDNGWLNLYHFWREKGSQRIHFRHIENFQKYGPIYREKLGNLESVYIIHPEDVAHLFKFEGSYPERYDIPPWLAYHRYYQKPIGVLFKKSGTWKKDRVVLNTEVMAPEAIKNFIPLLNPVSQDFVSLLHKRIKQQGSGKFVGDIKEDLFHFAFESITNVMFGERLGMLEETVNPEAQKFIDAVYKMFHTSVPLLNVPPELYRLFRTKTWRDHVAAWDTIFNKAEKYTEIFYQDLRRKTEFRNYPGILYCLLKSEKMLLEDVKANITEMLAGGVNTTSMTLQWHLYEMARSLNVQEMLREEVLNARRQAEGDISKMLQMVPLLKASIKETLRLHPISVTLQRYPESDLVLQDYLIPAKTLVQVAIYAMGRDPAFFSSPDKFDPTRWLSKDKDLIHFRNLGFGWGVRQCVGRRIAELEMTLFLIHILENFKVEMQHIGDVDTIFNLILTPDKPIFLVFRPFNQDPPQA

[2] = target: T1, Cholesterol side-chain cleavage enzyme, mitochondrial; test: Inhibition of bovine adrenal desmolase at 25 uM; conditions: cattle; for Inhibition: 25 µM
Aromatase = target: T2, Aromatase (Homo sapiens, UniProt P11511)
T2 sequence (P11511 whole entry): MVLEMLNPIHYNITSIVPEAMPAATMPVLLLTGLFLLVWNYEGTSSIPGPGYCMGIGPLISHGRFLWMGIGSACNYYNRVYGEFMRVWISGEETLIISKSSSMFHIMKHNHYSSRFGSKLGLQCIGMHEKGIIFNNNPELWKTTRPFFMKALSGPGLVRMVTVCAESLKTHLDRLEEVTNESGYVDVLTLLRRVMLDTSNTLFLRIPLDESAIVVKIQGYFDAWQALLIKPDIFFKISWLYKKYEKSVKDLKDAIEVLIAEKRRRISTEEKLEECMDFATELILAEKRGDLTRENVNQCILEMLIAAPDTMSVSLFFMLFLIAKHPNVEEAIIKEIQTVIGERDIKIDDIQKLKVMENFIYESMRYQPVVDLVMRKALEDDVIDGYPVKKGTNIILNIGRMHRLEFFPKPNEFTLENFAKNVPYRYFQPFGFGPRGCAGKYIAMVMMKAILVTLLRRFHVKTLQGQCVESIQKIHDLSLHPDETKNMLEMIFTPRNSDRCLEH
Description: Concentration inhibiting Aromatase

SMILES | IC50 [1] [µM] | inhibition at 25 µM [2] [%] | IC50 (Aromatase) [µM] | Inhibition [2] [%]
CCC1(c2ccc(N)cc2)CCC(=O)NC1=O (centres undefined) [AMINOGLUTETHIMIDE] | 29 | 57 |  | 
CC[C@@]1(c2ccc(N)cc2)CCC(=O)NC1=O |  | 36 |  | 
Nc1ccc(C2(C3CCCCC3)CCC(=O)NC2=O)cc1 (single isomer, unassigned; (+)) | 82 |  | 0.15 | 19
Nc1ccc(C2(C3CCCCC3)CCC(=O)NC2=O)cc1 (single isomer, unassigned; (-)) |  |  | 4.6 | 39
Nc1ccc(C2(C3CCCCC3)CCC(=O)NC2=O)cc1 (stereo in doubt; 2) | 67 |  | 0.3 | 31
CC[C@]1(c2ccc(N)cc2)CCC(=O)NC1=O |  | 67 |  | 
Nc1ccc(C2(C3CCCC3)CCC(=O)NC2=O)cc1 (centres undefined) |  | 59 | 1.2 | 
